Marks after values point to notes of the source that are not given here.
Key:
5-Lipoxygenase = target: T1, 5-Lipoxygenase (Rattus norvegicus, UniProt P12527); assay: 5-HETE production by RBL-1 high speed supernatant; format: biochemical; details: for IC50: Table 8A, RBL-1 high speed supernatant
T1 construct: The activities of these enzymes in extracts of RBL-1 cells were assayed; host or cells: RBL-1 cells, disrupted by nitrogen cavitation; 10,000 x g or 100,000 x g supernatant
T1 sequence (P12527 1-673): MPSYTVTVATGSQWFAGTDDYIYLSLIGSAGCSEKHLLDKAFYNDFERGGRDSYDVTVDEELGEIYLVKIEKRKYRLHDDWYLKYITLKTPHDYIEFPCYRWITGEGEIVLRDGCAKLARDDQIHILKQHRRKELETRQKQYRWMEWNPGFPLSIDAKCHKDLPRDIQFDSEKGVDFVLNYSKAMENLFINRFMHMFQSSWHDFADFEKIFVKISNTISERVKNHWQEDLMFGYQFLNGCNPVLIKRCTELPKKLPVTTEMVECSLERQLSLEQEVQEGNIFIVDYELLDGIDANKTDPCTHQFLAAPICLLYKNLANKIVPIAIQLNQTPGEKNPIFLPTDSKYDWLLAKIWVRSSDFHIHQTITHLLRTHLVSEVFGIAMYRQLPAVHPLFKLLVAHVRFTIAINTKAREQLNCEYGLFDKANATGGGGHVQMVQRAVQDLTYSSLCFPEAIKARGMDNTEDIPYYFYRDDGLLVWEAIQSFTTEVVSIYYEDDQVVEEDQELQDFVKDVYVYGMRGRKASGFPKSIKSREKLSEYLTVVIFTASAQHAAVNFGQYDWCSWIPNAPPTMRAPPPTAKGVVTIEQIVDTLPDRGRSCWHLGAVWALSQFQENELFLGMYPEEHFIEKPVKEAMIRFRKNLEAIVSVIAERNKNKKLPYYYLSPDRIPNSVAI
Procedure: (§1) For in vitro experiments, compounds were dissolved at appropriate concentrations in ethanol or DMSO (dimethylsulfoxide) (final concentration <1.0%) and then diluted to final concentrations using the buffers indicated in the text.
(§2) The activities of these enzymes in extracts of RBL-1 cells were assayed using the method of Jakschik and Lee, Nature, 287, 51-52 (1980). RBL-1 cells were obtained from the American Type Culture Collection (#CRL 1378) and were grown at 37°C (5% CO₂ in air) in spinner culture in MEM supplemented with 10% heat inactivated fetal calf serum. Harvested cells were washed with 50 mM sodium phosphate buffer, pH 7.0, containing 1 mM EDTA and 0.1% gelatin, resuspended in fresh buffer (5 x 10⁷ cells/ml) and disrupted by nitrogen cavitation using the Parr bomb at 750 psi for 10 min. The broken cell extract was then centrifuged at 10,000 x g for 20 minutes and the supernatant centrifuged at 100,000 x g for 60 minutes. Aliquots (0.25 mls) of the supernatant were preincubated with or without drugs for 10 min, after which 10 ul CaCl₂ (50 mM) was added and the reaction was initiated with 2.5 ul of 2.5 mM arachidonic acid-1-¹⁴C (final concentration was […]; specific activity 20,000 dpm/nmole). After incubation for 3 min at 37°C, the reaction was terminated by addition of 2 volumes (0.5 ml) ice cold acetone and the sample was allowed to deproteinize on ice for 10 min prior to centrifugation at 1,000 x g for 10 min. The deproteinized supernatant was adjusted to pH 3.5 with 2N formic acid and extracted with 2 volumes of ice cold ethyl acetate. The extracted samples were dried under argon, redissolved in ethyl acetate and applied to Whatman LK5D thin layer chromatography (TLC) plates which were developed using the A-9 solvent system [organic phase of ethyl acetate: 2,2,5-trimethylpentane:acetic acid: water (110:50:20:10)] described by Hamberg and Samuelsson, J. Biol. Chem., 241, 257-263 (1966). Arachidonic acid, 5-HETE, di-HETE and PGD₂ were quantified with a Berthold LB 2832 autoscanner.
(§3) The 5-lipoxygenase and LTA₄ synthetase activities were further studied under the following conditions. An additional centrifugation of the RBL-1 supernatant was run at 100,000 x g for 60 min, to remove the particulate cyclooxygenase activity. Sample incubation was done under conditions similar to those described above, i.e., 2 mM CaCl₂ and 25 uM arachidonic acid-1-¹⁴C, however, with an incubation time of 5 min at […]. Under these conditions, only the 5-lipoxygenase pathway metabolites were detectable. The 5-HETE and di-HETEs were formed at a linear rate, and […] amounts of the arachidonic acid-1-¹⁴C substrate were utilized.

5-LO = target: T2, 5-LO (Rattus norvegicus, UniProt P12527); assay: di-HETE production by RBL-1 high speed supernatant; format: biochemical; details: Table 9A; di-HETE production by RBL-1 high speed supernatant; read-out: 5-LO IC50
T2 construct: The activities of these enzymes in extracts of RBL-1 cells were assayed; host or cells: RBL-1 cells, disrupted by nitrogen cavitation; 10,000 x g or 100,000 x g supernatant
T2 sequence (P12527 1-673): T1 sequence (P12527 1-673)
Procedure: as §1, §2, §3

[1] = test system: Polymorphonuclear Leukocytes; assay: Mouse Carrageenan Peritonitis (PMN infiltration); format: in vivo, Balb/c mice; details: Table 2, Experiment 2; 50 mg/kg, s.c.
From the text: In the following Examples where mice were used, they were male Balb/c mice (20-28 g), and where rats were used, they were male Lewis rats (180-210 g). All mice and rats were obtained from Charles River Breeding Laboratories, Kingston, N.Y. Within a single experiment, mice and rats were sex and age matched.
The compounds of Formula (IA) were used either as the free base or in the appropriate salt form. Levamisole was used as the hydrochloride salt. The compounds were homogenized in 0.5% tragacanth. Compounds were administered by gavage at the indicated dose in a final volume of 10 ml/kg. Nordihydroguaiaretic acid (NDGA) was solubilized in dimethylacetamide and diluted with olive oil for subcutaneous administration.
Mice were pretreated with either the test compound or vehicle one hour before the intraperitoneal injection of a 1.0% carrageenan suspension in saline (0.2 ml/ mouse). Mice were sacrificed by cervical dislocation two hours after injection, and 3.0 ml of phosphate buffered saline, without Ca⁺⁺ or Mg⁺⁺, was injected into the peritoneum. Following massage, a 2.0 ml aliquot of the lavage fluid was removed, and the total cell count determined on a Coulter counter and differential cell count determined by microscopic examination of Giesma-stained slides.

Row | Structure (SMILES) | IC50 (5-Lipoxygenase) [µM] | IC50 (5-LO) [µM] | inhibition at 10 µM (5-Lipoxygenase; read-out: % inhibition at 10 μM, 10 μM, 5-HETE production, footnotes of Table 8A) [%] | % Change [1] | PMN x 10⁻⁵/ml (mean ± S.D.) [1] [x 10⁻⁵/ml]
1 | CC(Cc1ccc(O)c(O)c1)C(C)Cc1ccc(O)c(O)c1 (stereo not shown) [NDGA, Nordihydroguaiaretic acid] | – | – | – | 41^c % | 5.7 ± 2.1
2 | c1cc(-c2nc3n(c2-c2ccc4c(c2)OCO4)CCS3)ccn1 [Compound 7, 6-(4-pyridyl)-5-(3,4-methylenedioxyphenyl)-2,3-dihydroimidazo[2,1-b]thiazole] | 10 | 10 | – | – | –
3 | CC(=O)Nc1ccc(-c2nc3n(c2-c2ccncc2)CCS3)cc1 [Compound 38, 5-(4-pyridyl)-6-(4-acetamidophenyl)-2,3-dihydroimidazo [(2,1-b)]thiazole] | 69 | 30 | – | – | –
4 | c1cc(N2CCCC2)ccc1-c1nc2n(c1-c1ccc(N3CCCC3)cc1)CCS2 [Compound 3, 5,6-bis(4-(1-pyrrolidinyl)phenyl)-2,3-dihydroimidazo[2,1-b] thiazole] | 0.23 | 0.1 | – | – | –
5 | CCNc1ccc(-c2nc3n(c2-c2ccc(NCC)cc2)CCS3)cc1 [Compound 17] | 0.1 | 0.1 | – | – | –
6 | [O-][S+]1CCn2c1nc(-c1ccc(F)cc1)c2-c1ccncc1 (stereo not shown) [Compound 28, 6-(4-fluorophenyl)-5-(4-pyridyl)-2,3-dihydroimadazo-[2,1-b]thiazole-1-oxide] | 1000 | 1000 | – | – | –
7 | CCCNc1ccc(-c2nc3n(c2-c2ccncc2)CCS3)cc1 [Compound 2, 6-(4-(1-Propylamino)phenyl)-5-(4-pyridyl)-2,3-dihydroimidazo[2,1-b]thiazole] | 12 | 7 | – | – | –
8 | N#Cc1ccc(-c2nc3n(c2-c2ccc(C#N)cc2)CCS3)cc1 [Compound 13, 5,6-bis(4-cyanophenyl)-2,3-dihydroimidazo[2,1-b]thiazole] | 16 | 15 | – | – | –
9 | Fc1ccc(-c2c(-c3ccncc3)nc3n2CCS3)cc1 [Compound 12] | 16 | 17 | – | – | –
10 | COc1ccc(-c2nc3n(c2-c2ccc(OC)cc2)CCS3)cc1 [Compound 21] | 3.9 | 2.8 | – | – | –
11 | Fc1ccc(-c2nc3n(c2-c2ccccn2)CCS3)cc1 [Compound 23, 5-(2-pyridinyl)-6-(4-fluorophenyl)-2,3-dihydroimidazo[2,1-b]thiazole] | 90 | 42 | – | – | –
12 | Fc1ccc(-c2nc3n(c2-c2ccc(F)cc2)CCC3)cc1 [Compound 8, 2,3-Bis(4-fluorophenyl)-6,7-dihydro-5H-pyrrolo[1,2-a]imidazole] | 12 | 8 | – | – | –
13 | COc1ccc(-c2nc3n(c2-c2ccc(F)cc2)CCS3)cc1 [Compound 14] | 2 | 0.6 | – | – | –
14 | [O-][S+]1CCn2c1nc(-c1ccc(F)cc1)c2-c1ccc(F)cc1 (stereo not shown) [Compound 30] | 70 | 60 | – | – | –
15 | c1cc(-c2c(-c3ccc(N4CCCC4)cc3)nc3n2CCS3)ccn1 [Compound 25, 5-(4-pyridyl)-6-(4-(pyrrolidin-1-yl)phenyl)-2,3-dihydroimidazo[2,1-b]thiazole] | 0.5 | 0.5 | – | – | –
16 | c1cc(-c2nc3n(c2-c2ccncc2)CCS3)ccn1 [Compound 11, 5,6-Bis(4-pyridyl)-2,3-dihydroimidazo(2,1-b)thiazole] | 110 | 33 | – | – | –
17 | Fc1ccc(-c2c(-c3ccccn3)nc3n2CCS3)cc1 [Compound 24, 5-(4-fluorophenyl)-6-(2-pyridinyl)-2,3-dihydroimidazo[2,1-b]thiazole] | 37 | 20 | – | – | –
18 | c1cc(N2CCCCC2)ccc1-c1nc2n(c1-c1ccc(N3CCCCC3)cc1)CCS2 [Compound 4, 5,6-bis(4-(1-piperidinyl)phenyl)-2,3-dihydroimidazo[2,1-b] thiazole] | 1.2 | 0.6 | – | – | –
19 | c1cc(-c2c(-c3ccc4c(c3)OCO4)nc3n2CCS3)ccn1 [Compound 5, 5-(4-pyridyl)-6-(3,4-methylenedioxyphenyl)-2,3-dihydroimidazo[2,1-b]thiazole] | 10 | 10 | – | – | –

Continued, in another order:

Row | IC50 (5-Lipoxygenase) [µM] | IC50 (5-LO) [µM] | inhibition at 10 µM (5-Lipoxygenase; read-out: % inhibition at 10 μM, 10 μM, 5-HETE production, footnotes of Table 8A) [%] | Structure (SMILES) | % Change [1] | PMN x 10⁻⁵/ml (mean ± S.D.) [1] [x 10⁻⁵/ml]
20 | 10 | 10 | – | FC(F)(F)c1ccc(-c2nc3n(c2-c2ccc(C(F)(F)F)cc2)CCS3)cc1 [Compound 15] | – | –
21 | 10 | 10 | – | COc1ccc(-c2nc3n(c2-c2ccc(OC)cc2)CCS3(=O)=O)cc1 [Compound 43] | – | –
22 | 100 | > 100 | – | O=S1(=O)CCn2c1nc(-c1ccc(F)cc1)c2-c1ccncc1 [Compound 29, 6-(4-fluorophenyl)-5-(4-pyridyl)-2,3-dihydroimidazo[2,1b]thiazole-1,1-dioxide] | – | –
23 | 33 | < 33 | – | O=S1(=O)CCn2c1nc(-c1ccc(F)cc1)c2-c1ccc(F)cc1 [Compound 31] | – | –
24 | > 10 | > 100 | 35 to 40 | CSc1ccc(-c2nc3n(c2-c2ccc(SC)cc2)CCS3)cc1 [Compound 32] | – | –
25 | 0.8 | 0.6 | – | CN(C)c1ccc(-c2nc3n(c2-c2ccc(F)cc2)CCS3)cc1 [Compound 6, 6-(4-N,N-dimethylaminophenyl)-5-(4-fluorophenyl)-2,3-dihydroimidazo[2,1-b]thiazole] | – | –
26 | 8 | 6 | – | Nc1ccc(-c2nc3n(c2-c2ccc(N)cc2)CCS3)cc1 [Compound 45, 5,6-bis(4-aminophenyl)-2,3-dihydroimidazo[2,1-b]thiazole] | – | –
27 | 0.35 | 0.16 | – | CCN(CC)c1ccc(-c2nc3n(c2-c2ccc(N(CC)CC)cc2)CCS3)cc1 [Compound 9, 5,6-bis(4-N,N-diethylaminophenyl)-2,3-dihydroimidazo [2,1-b]thiazole] | – | –
28 | 3.8 | 1.5 | – | c1cc2c(cc1-c1nc3n(c1-c1ccc4c(c1)OCO4)CCS3)OCO2 [Compound 16] | – | –
29 | 8.6 | 5 | – | Fc1ccc(-c2nc3n(c2-c2ccc(F)cc2)CCS3)cc1 [Compound 19] | – | –
30 | 4 | – | – | COc1ccc(-c2nc3n(c2-c2ccc(OC)cc2)CCC3)cc1 [Compound 22] | – | –
31 | 5.4 | 1.9 | – | COc1ccc(-c2nc3n(c2-c2ccncc2)CCS3)cc1 [Compound 18] | – | –
32 | 5.6 | 5.6 | – | COc1ccc(-c2nc3n(c2-c2ccc(OC)cc2)CCCS3)cc1 [Compound 20] | – | –
